Test results published in PMC12349723, “Computationally accelerated identification of P-glycoprotein inhibitors” (PLOS One, 2025).
Like-named read-outs stand apart in the source and are kept apart here.

Tests used:
[1] = Resazurin cell viability pre-screen in DU145-TXR cells with or without PTX; format: cell-based; settings: human, mean of two experiments in triplicate, read-out: Viability, 15 µM compound alone
Description: Culture of the DU145, DU145-TXR, and HFL1 cell lines was performed as described in [8]. Culture of the A2780 and A2780-ADR cell lines was performed as described in [9]. MTT assays were performed as described in [8] with minor modifications. LC-MS/MS accumulation assays were performed as described in {Nanayakkara, 2018 #173} [9] with some modifications. […] The inhibitor concentration was lowered to 15 µM here, as the goal of the study was to identify compounds that were effective in reversing MDR at low concentrations, and to determine if the expanded virtual-assisted methods improved on our first-draft attempt. Compounds 56–98 were pre-screened using Resazurin cell viability assays: cells were incubated with 15 µM compound with or without 500 nM PTX for 48 hours, after which cell survival was assessed similar to [39]. Data represent the mean of two separate experiments, with n = 3 samples per experiment (n = 6 total) (S4 Table). The top performing compounds from this initial screen were re-tested with MTT viability assays against DU145-TXR cells, as described below.
S4 Table. Pre-screening of compounds 56 – 98 against DU145-TXR cells with resazurin assays. DU145-TXR cells were incubated with 15 µM compound with or without 500nM PTX for 48 hrs; survival was subsequently determined with the Resazurin viability assay ^[37]. […] Percent re-sensitization is defined as the percent change in viability between cells treated with compound and PTX, versus cells treated with PTX alone. In some instances, the assay reported an increase in viability with compound + PTX, and no percent sensitization is reported. ‘Follow-up Testing’ compounds were re-assessed with MTT assays (Figure 1). Compounds 59 and 89 (*, ‘Follow-up Testing’) were used as negative controls in follow-up MTT assays to test for consistency of results, e.g. to confirm that molecules eliminated in Resazurin assays were justifiably eliminated from later screening with MTT assays.

DU145-TXR cells = assay: MTT viability assay, reversal of MDR (re-sensitization to paclitaxel) in P-gp overexpressing DU145-TXR cells; format: cell-based, human; settings: for % Survival, mean / % Survival: 15 µM compound + 500 nM PTX (Paclitaxel, Taxol); for % Survival, mean / % Survival / viability at 15 µM: DU145-TXR; for Re-sensitization of DU145-TXR cells to PTX (reversal of MDR): 15 µM compound with or without 500 nM PTX, 48 h, MTT, re-sensitization = 30% or greater decrease in cell viability; for viability at 15 µM: Homo sapiens, 15 µM Compound Alone
Procedure, shortened: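 MTT viability testing was done on P-gp overexpressing, multidrug resistant DU145-TXR human prostate cancer cells. They were kept in 10 nM paclitaxel and seeded at 3,000 cells per well in complete RPMI. Cells were exposed to compound, with or without paclitaxel, for 48 hours. MTT was then added for 4 hours, formazan was dissolved in DMSO, and absorbance was read at 570 nm. Survival was expressed relative to control-treated cells.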

[2] = mean of 8 samples, read-out: % Survival, mean
[3] = trial 1, sample 1, read-out: % Survival
[4] = trial 1, sample 2, read-out: % Survival
[5] = trial 1, sample 3, read-out: % Survival
[6] = trial 1, sample 4, read-out: % Survival
[7] = trial 2, sample 1, read-out: % Survival
[8] = trial 2, sample 2, read-out: % Survival
[9] = trial 2, sample 3, read-out: % Survival
[10] = trial 2, sample 4, read-out: % Survival

Row | SMILES | viability at 48 h, 15 µM [1] [%] | % Survival, mean (DU145-TXR cells; mean of 8 samples) [%] | % Survival (DU145-TXR cells; trial 1, sample 1) [%] | % Survival (DU145-TXR cells; trial 1, sample 2) [%] | % Survival (DU145-TXR cells; trial 1, sample 3) [%] | % Survival (DU145-TXR cells; trial 1, sample 4) [%] | % Survival (DU145-TXR cells; trial 2, sample 1) [%] | % Survival (DU145-TXR cells; trial 2, sample 2) [%] | % Survival (DU145-TXR cells; trial 2, sample 3) [%] | % Survival (DU145-TXR cells; trial 2, sample 4) [%] | Re-sensitization of DU145-TXR cells to PTX (reversal of MDR) (DU145-TXR cells) | viability at 15 µM (DU145-TXR cells; [2]) [%] | viability at 15 µM (DU145-TXR cells; [3]) [%] | viability at 15 µM (DU145-TXR cells; [4]) [%] | viability at 15 µM (DU145-TXR cells; [5]) [%] | viability at 15 µM (DU145-TXR cells; [6]) [%] | viability at 15 µM (DU145-TXR cells; [7]) [%] | viability at 15 µM (DU145-TXR cells; [8]) [%] | viability at 15 µM (DU145-TXR cells; [9]) [%] | viability at 15 µM (DU145-TXR cells; [10]) [%]
1 | Cc1onc(-c2ccccc2)c1-c1nnc(Cn2cnc3c(oc4ccccc43)c2=O)o1 [Compound 78, Cc1onc(c1-c1nnc(Cn2cnc3c4ccccc4oc3c2=O)o1)-c1ccccc1] | 95.2 | 40.6 | 40 | 45 | 44 | 45 | 34 | 40 | 35 | 41 | re-sensitized DU145-TXR cells to PTX | 93.3 | 90 | 107 | 99 | 93 | 91 | 89 | 93 | 83
2 | NS(=O)(=O)c1cccc(NC(=O)CSc2nnnn2C2CC2)c1 [Compound 89, NS(=O)(=O)c1cccc(NC(=O)CSc2nnnn2C2CC2)c1] | 93.7 | 97.9 | 108 | 120 | 99 | 113 | 85 | 83 | 88 | 87 | did not reverse MDR in DU145-TXR cells | 105 | 115 | 120 | 122 | 116 | 103 | 92 | 95 | 79
3 | O=S(=O)(CCSc1nnc(-c2ccccc2)c2ccccc12)c1ccccc1 [Compound 96, O=S(=O)(CCSc1nnc(-c2ccccc2)c2ccccc12)c1ccccc1] | 89.4 | 55.3 | 56 | 66 | 66 | 63 | 47 | 50 | 48 | 46 | re-sensitized DU145-TXR cells to PTX | 89.2 | 101 | 100 | 98 | 93 | 85 | 85 | 80 | 71
4 | O=S(=O)(Cc1nc2ccccc2n1CC(O)c1ccc(Cl)cc1)c1ccccc1 (stereo not drawn) [Compound 97, OC(Cn1c(CS(=O)(=O)c2ccccc2)nc2ccccc12)c1ccc(Cl)cc1] | 102 | 34.9 | 26 | 30 | 24 | 42 | 44 | 41 | 30 | 42 | re-sensitized DU145-TXR cells to PTX | 87.2 | 107 | 82 | 82 | 83 | 77 | 89 | 88 | 90
5 | COc1cc2c(cc1OC)CN(CCc1ccc(NC(=O)c3cc(OC)c(OC)cc3NC(=O)c3cnc4ccccc4c3)cc1)CC2 [Tariquidar, reference compound] | 75.2 | 13.1 | 11 | 10 | 21 | 13 | 20 | 13 | 9 | 7.57 | – | 101 | 139 | 94 | 96 | 95 | 80 | 106 | 79 | 123
